In PMC6273209, “Evaluation of the Enantiomer Specific Biokinetics and Radiation Doses of [^18F]Fluspidine—A New Tracer in Clinical Translation for Imaging of σ1 Receptors” (Molecules, 2016):
Where two headings read alike, the source gives them in different places.

Legend:
[1] = cited from earlier work
[2] = imaging, cited from earlier work
[3] = cited from earlier work; remark: listed apart in the source
σ1 receptors = molecular target: σ1 receptors; set-up: method as in PMID 24130175; details: read-out: Ki (affinity towards σ1 receptors); cited from earlier work
[4] = Acute toxicity study, single intravenous injection; type: in vivo; details: Wistar rats
From the text: Supplementary Materials: Evaluation of the Enantiomer Specific Biokinetics and Radiation Doses of [18F]Fluspidine—A New Tracer in Clinical
Translation for Imaging of σ1 Receptors […]
Supplemental Methods and Results
Animal Toxicity Study of (S)-(−)-Fluspidine
The purpose of this study was to assess the acute toxicity of (S)-(−)-fluspidine when administered by a single intravenous injection to rats followed by an observation period of 2 or 15 day (in accordance with EU cGLP). Briefly, the study was performed with 4 test groups, including 1 control (saline and dimethylsulfoxide) and 3 dose groups (6.2, 62 and 620 µg/kg, (S)- (−)ﬂuspidine), with Wistar rats (60 m, 60 f, 12 weeks) divided into two experiments: day 2 (40 males and 40 females) and day 15 (20 males and 20 females). The animals were weighted and allocated to the test groups based on their actual body weights. The animals were sacrificed at two time periods (day 2 and day 15 after test item administration) and then examined macroscopically and histopathologically. In addition the following parameters were evaluated: mortality, clinical observation (spasms, tremor and hyperactivity), body weights, food consumption, haematology (white blood cells, red blood cells, hemoglobin, hematocrit, mean corpuscular volume, mean corpuscular hemoglobin, platelets, lympohcytes, neutrophils, eosinophils, basophils, monocytes), clinical chemistry (alkaline phosphatase, aspartate aminotransferase, alanine aminotransferase, glucose, cholesterol, triacylglycerols, creatinine, urea, bilirubin, albumin, calcium, phosphorus, sodium, potassium chloride), pathology and histopathology. […]
in either gender were detected. The food consumption corresponded with body weight development. All haematology parameter´s values on day 2 and day 15 were within physiological range for this species. Individual divergences of some values of the haematology parameters were slight and not connected with treatment.
There were no findings in clinical chemistry parameters which could be definitively considered as adverse. The average values of all test groups were within the historical control ranges. Occasional changes had no dose relationship, they were considered to be a result of intraindividual and interindividual variability for this species. […]
histopathological parameters on day 2 and day 15. The no observed effect level (NOEL) of (S)- (−)-fluspidine after single intravenous administration in this study for both day 2 and day 15 was determined to be 620 µg/kg.

[5] = set-up: method as in PMID 12573321, PMID 12589478; details: cited from earlier work

SMILES: [18F]c1ccc(C2CC3CCCC2N3)cn1 (single isomer, unassigned; (+)) [(+)-[^18F]flubatine]
- ED Preclinical ([1]; mouse, imaging): 12.1 μSv/MBq
- ED Preclinical ([2]; piglets): 14.3 μSv/MBq
- ED Clinical [3]: 23.0 μSv/MBq

SMILES: [18F]c1ncccc1OC[C@@H]1CCN1 [2-[^18F]F-A85380]
- ED Clinical [3]: 19.4 μSv/MBq

SMILES: FCC[C@H]1OC2(CCN(Cc3ccccc3)CC2)c2ccccc21 [(R)-(+)-[^18F]fluspidine]
- Ki (σ1 receptors): 570 pM

SMILES: FCC[C@@H]1OC2(CCN(Cc3ccccc3)CC2)c2ccccc21 [(S)-(−)-fluspidine]
- body weights, control vs treated groups ([4]; single i.v. 6.2, 62 and 620 µg/kg, either gender): No statistically significant differences in body weights
- adverse findings in clinical chemistry parameters ([4]; single i.v.): no findings
- effect on haematology parameters ([4]; single i.v., day 2 and day 15): No test item effect
- toxicological changes in pathological and histopathological parameters ([4]; single intravenous administration, day 2 and day 15): did not cause toxicological changes
- no observed effect level (NOEL) ([4]; single intravenous administration, day 2 and day 15, highest tested dose): 0.62 mg/kg

SMILES: [18F]c1ccc([C@@H]2C[C@H]3CCC[C@@H]2N3)cn1 [(−)-[^18F]flubatine]
- ED Preclinical ([1]; mouse): 12.5 μSv/MBq
- ED Preclinical ([2]; piglet): 14.7 μSv/MBq
- ED Clinical [3]: 23.4 μSv/MBq

SMILES: OC[C@H]1OC(O)[C@H]([18F])[C@@H](O)[C@@H]1O (stereo partly shown) [[^18F]FDG]
- ED Clinical [3]: 19.0 μSv/MBq

SMILES: COc1ccc(OCC[18F])c(CN(C(C)=O)c2cc(F)ccc2Oc2ccccc2)c1 [[^18F]FEDAA1106]
- ED Preclinical ([1]; female mouse): 26.0 μSv/MBq
- ED Preclinical ([1]; male mouse): 21.0 μSv/MBq
- ED Clinical [3]: 36 μSv/MBq

SMILES: N[C@@H](Cc1ccc(OCC[18F])cc1)C(=O)O [[^18F]FET]
- ED Preclinical [5]: 9.0 μSv/MBq
- ED Clinical [3]: 16.5 μSv/MBq
